Results from PMC6384738, “Structure-Function Studies of Polymyxin B Lipononapeptides” (Molecules, 2019).
In brackets after ≈: the same amount, converted by molar mass. *1 amine or outer side, *2 acyl side, *3 side chain or, on linkers, in order; H or OH if unused. Where a SMILES comes first, the peptide text is derived from it. Bridges are numbered along the chain shown (N, C = ends). [ ]: non-standard residue; d: D form. The star is where a group is joined. Biphenylcarbonyl(4'-Bu) = CCCCc1ccc(-c2ccc(C(=O)*)cc2)cc1; X1 = CCCCCC1CCC(C(=O)*)CC1; NH(2-ClPh) = Clc1ccccc1N*; dDab = NCC[C@@H](N)C(=O)O; Octanoyl = CCCCCCCC(=O)*; Orn = NCCC[C@H](N)C(=O)O; Dab = NCC[C@H](N)C(=O)O; Dap = NC[C@H](N)C(=O)O; CO = O=C([*:1])[*:2]

Tests used:
K. pneumoniae BAA 2146 = assay: microbe, parasite or virus in culture; conditions: BAA 2146, 18 h
Description: (§1) All compounds synthesised in this study were assessed for their minimum inhibitory concentrations (MIC, mg/L) by broth microdilution assay against five antibiotic-sensitive and resistant ATCC reference strains covering the Gram-negative ESKAPE pathogens (Escherichia coli, Klebsiella pneumoniae, A. baumannii, and P. aeruginosa) (Table 1, Table 2 and Table 3). Staphylococcus aureus was also included as a representative Gram-positive bacterial strain. […] Polymyxin B 1, colistin 2, vancomycin and gentamicin were used as positive inhibitor comparator compounds. Compounds were counter-screened against human proximal tubular epithelial cells (HK-2), using LDH release as a general indicator of cellular toxicity.

P. aeruginosa ATTC 27853 = assay: microbe, parasite or virus in culture; conditions: ATTC 27853, 18 h
Description: as §1

A. baumannii ATCC 19606 = assay: microbe, parasite or virus in culture; conditions: ATCC 19606, 18 h
Description: as §1

K. pneumoniae ATCC 13833 = assay: microbe, parasite or virus in culture; conditions: ATCC 13833, 18 h
Description: as §1

[1] = tested on: K. pneumoniae ATCC 700603; assay: microbe, parasite or virus in culture; conditions: ATCC 700603, 18 h
Description: as §1

E. coli ATCC 25922 = assay: microbe, parasite or virus in culture; conditions: ATCC 25922, 18 h
Description: as §1

S. aureus ATCC 25923 = assay: microbe, parasite or virus in culture; conditions: ATCC 25923, 18 h
Description: as §1

in vitro = conditions: human
Description: as §1
Cytotoxicity to human kidney proximal tubular epithelial cell line, HK-2 (ATCC CRL-2190, sourced from ATCC; Manassas, VA, USA) was determined using the LDH assay as previously described. In brief, HK-2 cells were seeded as 2000 cells/well in black-walled clear bottom 384-well tissue culture treated plates (Corning, catalogue No. 3712) in DMEM/F12 medium (Gibco® 10565-042) containing 10% of Fetal Bovine Serum (FBS, Gibco® 10099-141) and incubated for 24 h at 37 °C, 5% CO2. Compounds were then added into each well with a concentration series from 300 µM to 2.3 µM in 2-fold dilutions. Colistin and polymyxin B were used as controls and tested at a final concentration range of 1 mM to 7.8 µM. The cells were incubated with the compounds for 24 h at 37 °C, 5% CO2. After the incubation, 5 µL of culture medium was added to 45 µL of LDH assay buffer (Biovision, K313-500) and incubated for 30 min at room temperature. The absorbance (ABS) was then read at 450 nm using a Polar Star Omega plate reader. The data was analysed by Prism 6 software (GraphPad Software, La Jolla, CA, USA). Results were calculated using the following equation: cytotoxicity %= (ABSsamples − ABSuntreated/ABS1%Triton X-100 − ABSuntreated) × 100.

Structure (SMILES)	MIC K. pneumoniae BAA 2146 (K. pneumoniae BAA 2146)	MIC P. aeruginosa ATTC 27853 (P. aeruginosa ATTC 27853)	MIC A. baumannii ATCC 19606 (A. baumannii ATCC 19606)	MIC K. pneumoniae ATCC 13833 (K. pneumoniae ATCC 13833)	MIC K. pneumoniae ATCC 700603 [1]	MIC E. coli ATCC 25922 (E. coli ATCC 25922)	MIC S. aureus ATCC 25923 (S. aureus ATCC 25923)	CC50 at 24 h (in vitro)
CCCCCCCC(=O)N[C@H](C(=O)N[C@@H](CC(N)=O)C(=O)N[C@H]1CCNC(=O)[C@H]([C@@H](C)O)NC(=O)[C@H](CCN)NC(=O)[C@H](CCN)NC(=O)[C@H](CC(C)C)NC(=O)[C@@H](Cc2ccccc2)NC(=O)[C@H](CCN)NC1=O)[C@@H](C)O [Compound 38] (Octanoyl-TN[Dab][Dab][dF]L[Dab][Dab]T; lactam 3-C)	>32 µg/mL	>32 µg/mL	>32 µg/mL	>32 µg/mL	>32 µg/mL	32 µg/mL (≈ 29 µM)	>32 µg/mL	284 µM
CCCCCCCC(=O)N[C@H](C(=O)N[C@@H](CCN)C(=O)N[C@H]1CCCNC(=O)[C@H]([C@@H](C)O)NC(=O)[C@H](CCN)NC(=O)[C@H](CCN)NC(=O)[C@H](CC(C)C)NC(=O)[C@@H](Cc2ccccc2)NC(=O)[C@H](CCN)NC1=O)[C@@H](C)O [Compound 17] (Octanoyl-T[Dab][Orn][Dab][dF]L[Dab][Dab]T; lactam 3-C)	16 µg/mL (≈ 14.5 µM)	2 µg/mL (≈ 1.81 µM)	>32 µg/mL	32 µg/mL (≈ 29 µM)	16 µg/mL (≈ 14.5 µM)	2 µg/mL (≈ 1.81 µM)	>32 µg/mL	88 µM
CCCCCCCC(=O)N[C@H](C(=O)N[C@@H](CCN)C(=O)N[C@H]1CCCCNC(=O)[C@H]([C@@H](C)O)NC(=O)[C@H](CCN)NC(=O)[C@H](CCN)NC(=O)[C@H](CC(C)C)NC(=O)[C@@H](Cc2ccccc2)NC(=O)[C@H](CCN)NC1=O)[C@@H](C)O [Compound 18] (Octanoyl-T[Dab]K[Dab][dF]L[Dab][Dab]T; lactam 3-C)	>32 µg/mL	16 µg/mL (≈ 14.3 µM)	>32 µg/mL	>32 µg/mL	>32 µg/mL	16 µg/mL (≈ 14.3 µM)	>32 µg/mL	88 µM
CCCCc1ccc(-c2ccc(C(=O)N[C@H](C(=O)N[C@H](CCN)C(=O)N[C@H]3CCNC(=O)[C@H]([C@@H](C)O)NC(=O)[C@H](CCN)NC(=O)[C@H](CCN)NC(=O)[C@H](CC(C)C)NC(=O)[C@@H](Cc4ccccc4)NC(=O)[C@H](CCN)NC3=O)[C@@H](C)O)cc2)cc1 [Compound 23] ({Biphenylcarbonyl(4'-Bu)}-T[dDab][Dab][Dab][dF]L[Dab][Dab]T; lactam 3-C)								29 µM
CCCCCCCC(=O)N[C@@H](CCN)C(=O)N[C@H](C(=O)N[C@H](CO)C(=O)N[C@H]1CCNC(=O)[C@H]([C@@H](C)O)NC(=O)[C@H](CCN)NC(=O)[C@H](CCN)NC(=O)[C@H](CC(C)C)NC(=O)[C@@H](Cc2ccccc2)NC(=O)[C@H](CCN)NC1=O)[C@@H](C)O [Compound 34] (Octanoyl-[Dab]T[dS][Dab][Dab][dF]L[Dab][Dab]T; lactam 4-C)	16 µg/mL (≈ 13.6 µM)			0.5 µg/mL (≈ 0.425 µM)	2 µg/mL (≈ 1.7 µM)		>32 µg/mL	139 µM
CCCCCC1CCC(C(=O)N[C@H](C(=O)N[C@H](CCN)C(=O)N[C@H]2CCNC(=O)[C@H]([C@@H](C)O)NC(=O)[C@H](CCN)NC(=O)[C@H](CCN)NC(=O)[C@H](CC(C)C)NC(=O)[C@@H](Cc3ccccc3)NC(=O)[C@H](CCN)NC2=O)[C@@H](C)O)CC1 (stereo partly drawn) [Compound 24] (X1-T[dDab][Dab][Dab][dF]L[Dab][Dab]T; lactam 3-C)	4 µg/mL (≈ 3.5 µM)	4 µg/mL (≈ 3.5 µM)	32 µg/mL (≈ 28 µM)	>32 µg/mL	8 µg/mL (≈ 7 µM)	4 µg/mL (≈ 3.5 µM)		60 µM
CC(C)C[C@@H]1NC(=O)[C@@H](Cc2ccccc2)NC(=O)[C@H](CCN)NC(=O)[C@@H](NC(=O)[C@H](CCN)NC(=O)[C@@H](NC(=O)[C@H](CCN)NC(=O)Nc2ccccc2Cl)[C@@H](C)O)CCNC(=O)[C@H]([C@@H](C)O)NC(=O)[C@H](CCN)NC(=O)[C@H](CCN)NC1=O [Compound 16] ({NH(2-ClPh)-CO}-[Dab]T[Dab][Dab][Dab][dF]L[Dab][Dab]T; lactam 4-C)								> 300 µM

Second part, led by results:

MIC K. pneumoniae BAA 2146 (K. pneumoniae BAA 2146)	MIC P. aeruginosa ATTC 27853 (P. aeruginosa ATTC 27853)	MIC A. baumannii ATCC 19606 (A. baumannii ATCC 19606)	MIC K. pneumoniae ATCC 13833 (K. pneumoniae ATCC 13833)	MIC K. pneumoniae ATCC 700603 [1]	MIC E. coli ATCC 25922 (E. coli ATCC 25922)	MIC S. aureus ATCC 25923 (S. aureus ATCC 25923)	Structure (SMILES)	CC50 at 24 h (in vitro)
4 µg/mL (≈ 3.63 µM)	2 µg/mL (≈ 1.81 µM)	16 µg/mL (≈ 14.5 µM)	8 µg/mL (≈ 7.25 µM)	4 µg/mL (≈ 3.63 µM)	2 µg/mL (≈ 1.81 µM)	>32 µg/mL	CCCCCCCC(=O)N[C@H](C(=O)N[C@@H](CCCN)C(=O)N[C@H]1CCNC(=O)[C@H]([C@@H](C)O)NC(=O)[C@H](CCN)NC(=O)[C@H](CCN)NC(=O)[C@H](CC(C)C)NC(=O)[C@@H](Cc2ccccc2)NC(=O)[C@H](CCN)NC1=O)[C@@H](C)O [Compound 40] (Octanoyl-T[Orn][Dab][Dab][dF]L[Dab][Dab]T; lactam 3-C)	> 300 µM
0.5 µg/mL (≈ 0.465 µM)	1 µg/mL (≈ 0.93 µM)	1 µg/mL (≈ 0.93 µM)	1 µg/mL (≈ 0.93 µM)	1 µg/mL (≈ 0.93 µM)	1 µg/mL (≈ 0.93 µM)	>32 µg/mL	CCCCCCCC(=O)N[C@H](C(=O)N[C@@H](CN)C(=O)N[C@H]1CCNC(=O)[C@H]([C@@H](C)O)NC(=O)[C@H](CCN)NC(=O)[C@H](CCN)NC(=O)[C@H](CC(C)C)NC(=O)[C@@H](Cc2ccccc2)NC(=O)[C@H](CCN)NC1=O)[C@@H](C)O [Compound 39] (Octanoyl-T[Dap][Dab][Dab][dF]L[Dab][Dab]T; lactam 3-C)	290 µM
8 µg/mL (≈ 7.16 µM)	4 µg/mL (≈ 3.58 µM)	32 µg/mL (≈ 28.6 µM)	16 µg/mL (≈ 14.3 µM)	16 µg/mL (≈ 14.3 µM)	4 µg/mL (≈ 3.58 µM)	>32 µg/mL	CCCCCCCC(=O)N[C@H](C(=O)N[C@@H](CCCCN)C(=O)N[C@H]1CCNC(=O)[C@H]([C@@H](C)O)NC(=O)[C@H](CCN)NC(=O)[C@H](CCN)NC(=O)[C@H](CC(C)C)NC(=O)[C@@H](Cc2ccccc2)NC(=O)[C@H](CCN)NC1=O)[C@@H](C)O [Compound 42] (Octanoyl-TK[Dab][Dab][dF]L[Dab][Dab]T; lactam 3-C)	> 300 µM
16 µg/mL (≈ 14 µM)	4 µg/mL (≈ 3.49 µM)	32 µg/mL (≈ 27.9 µM)	>32 µg/mL	8 µg/mL (≈ 6.98 µM)	2 µg/mL (≈ 1.75 µM)	>32 µg/mL	CCCCCCCC(=O)N[C@H](C(=O)N[C@@H](CCCNC(=N)N)C(=O)N[C@H]1CCNC(=O)[C@H]([C@@H](C)O)NC(=O)[C@H](CCN)NC(=O)[C@H](CCN)NC(=O)[C@H](CC(C)C)NC(=O)[C@@H](Cc2ccccc2)NC(=O)[C@H](CCN)NC1=O)[C@@H](C)O [Compound 45] (Octanoyl-TR[Dab][Dab][dF]L[Dab][Dab]T; lactam 3-C)	> 300 µM
4 µg/mL (≈ 3.55 µM)	16 µg/mL (≈ 14.2 µM)	4 µg/mL (≈ 3.55 µM)	4 µg/mL (≈ 3.55 µM)	4 µg/mL (≈ 3.55 µM)	2 µg/mL (≈ 1.78 µM)	>32 µg/mL	CCCCCCCC(=O)N[C@H](C(=O)N[C@H](Cc1c[nH]cn1)C(=O)N[C@H]1CCNC(=O)[C@H]([C@@H](C)O)NC(=O)[C@H](CCN)NC(=O)[C@H](CCN)NC(=O)[C@H](CC(C)C)NC(=O)[C@@H](Cc2ccccc2)NC(=O)[C@H](CCN)NC1=O)[C@@H](C)O [Compound 48] (Octanoyl-T[dH][Dab][Dab][dF]L[Dab][Dab]T; lactam 3-C)	> 300 µM
			0.5 µg/mL (≈ 0.436 µM)			>32 µg/mL	CCCCCCCC(=O)N[C@@H](CCN)C(=O)N[C@H](C(=O)NCC(=O)N[C@H]1CCNC(=O)[C@H]([C@@H](C)O)NC(=O)[C@H](CCN)NC(=O)[C@H](CCN)NC(=O)[C@H](CC(C)C)NC(=O)[C@@H](Cc2ccccc2)NC(=O)[C@H](CCN)NC1=O)[C@@H](C)O [Compound 50] (Octanoyl-[Dab]TG[Dab][Dab][dF]L[Dab][Dab]T; lactam 4-C)	> 300 µM
